Experimental data reported in patent US20240024317A1, “CANCER TREATMENT USING BOSENTAN IN COMBINATION WITH A CHECKPOINT INHIBITOR” (Materia Therapeutics Inc., priority 2020, published 2024).

How the values were obtained:
Format in all cases: in vivo, mice
MCA205 tumors [1] = test: Tumor growth in fibrosarcoma model, ketotifen, doxorubicin, anti-PD-L1; conditions: for tumor growth: monotherapy
Method: (§1) A fibrosarcoma syngeneic tumor model was generated by subcutaneous implantation of 2.5×10^5 MCA205 cells in 50 μL of serum-free medium into the flank of 6-week old C57BL/6 female mice. A osteosarcoma syngeneic tumor model was generated by implanting K7M2 wt tumor chunks into the fat pad of 6-week old BALB/c female mice.
(§2) Mice bearing sarcoma tumors were pre-treated with 10 mg/kg daily ketotifen followed by three or four doses of doxorubicin and/or an immune checkpoint inhibitor anti-PD-L1 antibody. Mouse monoclonal anti-PD-L1 (B7-H1, clone 10F.9G2, BioXCell) was used. Doxorubicin hydrochloride was prepared as a ready-made solution of 2 mg/ml. Anti-PD-L1 antibody was administered at a final dose of 10 mg/kg and doxorubicin at 5 mg/kg.
Mice bearing MCA205 tumors were pretreated with daily ketotifen 10 mg/kg or equal volume of diluent (control group) once the average tumor size reached 40 mm^3, prior to the neoadjuvant treatment. Doxorubicin and anti-PD-L1 combination treatment initiated when tumors reached an average size of 150 mm^3 (day 7) and was administered as i.p. injections every three days (day 7, 10, and 13) for three doses. Daily ketotifen continued until completion of doxorubicin-anti-PD-L1 combination treatment.
(§3) Primary tumors were resected and stored when they reached an average size of 700 mm^3 on day 16 and mice were monitored for re-challenge experiments. Similarly, K7M2 wt tumors were pretreated with daily ketotifen 10 mg/kg or equal volume of diluent (control group) once the average tumor size reached 80 mm^3 (day 18) and continued until completion of neoadjuvant treatment. Doxorubicin and anti-PD-L1 combination treatment started when tumors reached an average size of 150 mm^3 (day 22) and repeated on day 25, 28 and 31. Study ended when tumors reached a mean volume of 550 mm 3 (day 33). Mice were sacrificed and tumors were collected for ex vivo analysis.

K7M2 wt tumors [2] = test: Tumor growth in osteosarcoma model, ketotifen, doxorubicin, anti-PD-L1; conditions: for tumor growth: monotherapy
Method: as §1, §2, §3

K7M2 wt tumors [3] = test: Contrast-enhanced ultrasound of vascular and functional perfusion, ketotifen; conditions: during ketotifen treatment
Method: (§4) Vascular perfusion and functional perfusion were measured simultaneously during the course of ketotifen treatment, using contrast-enhanced ultrasound in mice bearing MCA205 and mice bearing K7M2 wt tumors.

MCA205 tumors [4] = test: as above; conditions: during ketotifen treatment
Method: as §4

[5] = tested on: MCA205 fibrosarcoma tumors; test: Shear wave elastography of tumor elastic modulus, ketotifen
From the text: The mechanotherapeutic potential of ketotifen in reducing matrix stiffness was primarily assessed non-invasively and longitudinally using ultrasound elastography. Assessment of tumor elastic modulus was […] via shear wave elastography using a Philips EPIQ Elite Ultrasound scanner with an eL 18-4 linear array.

MCA205 tumors [6] = test: Interstitial fluid pressure (IFP), wick-in-needle technique, ketotifen
Method: Interstitial fluid pressure (IFP) was measured in vivo using the “wick-in-needle” technique after mice were anesthetized with i.p. injection of Avertin and prior to tumor excision. Additional information regarding the wick-in-needle technique is described in Dong et al., Involvement of mast cell chymase in burn wound healing in hamsters 2013; 5:643-7 and Shankaran et al. IFNγ and lymphocytes prevent primary tumour development and shape tumour immunogenicity 2001; 410:1107-11, the contents of which are incorporated herein by reference in their entirety.

[7] = anti-PD-L1 (10 mg/kg) and/or doxorubicin (5 mg/kg) combined with 10 mg/kg daily ketotifen

Compound	tumor growth (MCA205 tumors [1])	tumor growth (K7M2 wt tumors [2])	antitumor response (MCA205 tumors [1]; [7])	antitumor response (K7M2 wt tumors [2]; [7])	functional perfusion (K7M2 wt tumors [3])	vascular perfusion (K7M2 wt tumors [3])	functional perfusion (MCA205 tumors [4])	vascular perfusion (MCA205 tumors [4])	Young's modulus ([5]; 10 mg/kg ketotifen)	tissue stiffness (ultrasound elastography) ([5]; 10 mg/kg ketotifen compared with other doses)	IFP (MCA205 tumors [6]; 10 mg/kg dose of ketotifen compared with other doses)	IFP (MCA205 tumors [6]; all doses of ketotifen, daily for 7 days)
COc1cccc2c1C(=O)c1c(O)c3c(c(O)c1C2=O)C[C@@](O)(C(=O)CO)C[C@@H]3O[C@H]1C[C@H](N)[C@H](O)[C@H](C)O1 [doxorubicin]	Neither anti-PD-L1 nor doxorubicin monotherapies significantly affected tumor growth	Neither anti-PD-L1 nor doxorubicin monotherapies significantly affected tumor growth										
CN1CCC(=C2c3ccccc3CC(=O)c3sccc32)CC1 [ketotifen]	no antitumor effect	no antitumor effect	induced a significant antitumor response	induced a significant antitumor response	significant increase	significant increase	significant increase	significant increase	20 kPa	reduced tissue stiffness the most	greatest effect	reduced the IFP
